Converted amounts (≈) assume the structure as drawn.
Legend:
Assay in all cases: in vitro antibacterial activity (MIC), agar dilution
Assay type in all cases: cell-based
Candida albicans CCH 442 = conditions: organism code TT; BHI agar, 35-37° C., 20 to 24 hours; unit assumed
Method in brief: (§1)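 Agar dilution on BHI agar with twelve successive compound dilutions; plates inoculated by Steers replicator with 1:100 culture dilutions (1:10 for slow growers such as Streptococcus). MIC is the lowest concentration giving no growth, slight haze or sparse colonies versus a drug-free control.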

[1] = system: Enterococcus faecium ATCC 8043; conditions: organism code II; BHI agar, 35-37° C., 20 to 24 hours; unit assumed
Method in brief: as §1

Escherichia coli DC-2 = conditions: organism code SS; BHI agar, 35-37° C., 20 to 24 hours; unit assumed
Method in brief: as §1

Escherichia coli JUHL = conditions: organism code QQ; BHI agar, 35-37° C., 20 to 24 hours; unit assumed
Method in brief: as §1

Escherichia coli SS = conditions: organism code RR; BHI agar, 35-37° C., 20 to 24 hours; unit assumed
Method in brief: as §1

[2] = system: Haemophilis Influenzae DILL AMP R; conditions: organism code WW; BHI agar, 35-37° C., 20 to 24 hours; unit assumed
Method in brief: as §1

[3] = system: Micrococcus luteus ATCC 4698; conditions: organism code PP; BHI agar, 35-37° C., 20 to 24 hours; unit assumed
Method in brief: (§2)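 BHI agar incorporation method; twelve compound concentrations. Streptococcus and other slow growers inoculated at 1:10, other strains at 1:100. Visual MIC read-out versus growth control.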

[4] = system: Micrococcus luteus ATCC 9341; conditions: organism code OO; BHI agar, 35-37° C., 20 to 24 hours; unit assumed
Method in brief: as §2

[5] = system: Mycobacterium smegmatis ATCC 114; conditions: organism code UU; BHI agar, 35-37° C., 20 to 24 hours; unit assumed
Method in brief: as §1

[6] = system: Nocardia Asteroides ATCC9970; conditions: organism code VV; BHI agar, 35-37° C., 20 to 24 hours; unit assumed
Method in brief: as §1

[7] = system: Staphylococcus aureus 1775; conditions: organism code GG; BHI agar, 35-37° C., 20 to 24 hours; unit assumed
Method in brief: as §1

[8] = system: Staphylococcus aureus A-5278; conditions: organism code CC; BHI agar, 35-37° C., 20 to 24 hours; unit assumed
Method in brief: as §1

[9] = system: Staphylococcus aureus A5177; conditions: organism code BB; BHI agar, 35-37° C., 20 to 24 hours; unit assumed
Method in brief: as §1

[10] = system: Staphylococcus aureus ATCC 6538P; conditions: organism code AA; BHI agar, 35-37° C., 20 to 24 hours; unit assumed
Method in brief: as §1

[11] = system: Staphylococcus aureus CMX 553; conditions: organism code FF; BHI agar, 35-37° C., 20 to 24 hours; unit assumed
Method in brief: as §1

[12] = system: Staphylococcus aureus CMX 642A; conditions: organism code DD; BHI agar, 35-37° C., 20 to 24 hours; unit assumed
Method in brief: as §1

[13] = system: Staphylococcus aureus NCTC10649M; conditions: organism code EE; BHI agar, 35-37° C., 20 to 24 hours; unit assumed
Method in brief: as §1

[14] = system: Staphylococcus epidermidis 3519; conditions: organism code HH; BHI agar, 35-37° C., 20 to 24 hours; unit assumed
Method in brief: as §1

[15] = system: Streptococcus Pneumonia 5649; conditions: organism code ZZA; BHI agar, 35-37° C., 20 to 24 hours; unit assumed
Method in brief: as §1

[16] = system: Streptococcus Pneumonia 5979; conditions: organism code ZZ; BHI agar, 35-37° C., 20 to 24 hours; unit assumed
Method in brief: as §1

[17] = system: Streptococcus Pneumonia ATCC6303; conditions: organism code XX; BHI agar, 35-37° C., 20 to 24 hours; unit assumed
Method in brief: as §1

[18] = system: Streptococcus Pneumonia GYR 1171; conditions: organism code YY; BHI agar, 35-37° C., 20 to 24 hours; unit assumed
Method in brief: as §1

[19] = system: Streptococcus agalactiae CMX 508; conditions: organism code KK; BHI agar, 35-37° C., 20 to 24 hours; unit assumed
Method in brief: as §1

[20] = system: Streptococcus bovis A-5169; conditions: organism code JJ; BHI agar, 35-37° C., 20 to 24 hours; unit assumed
Method in brief: as §1

[21] = system: Streptococcus pyogenes 930; conditions: organism code MM; BHI agar, 35-37° C., 20 to 24 hours; unit assumed
Method in brief: as §1

[22] = system: Streptococcus pyogenes EES61; conditions: organism code LL; BHI agar, 35-37° C., 20 to 24 hours; unit assumed
Method in brief: as §1

[23] = system: Streptococcus pyogenes PIU 2548; conditions: organism code NN; BHI agar, 35-37° C., 20 to 24 hours; unit assumed
Method in brief: as §1

Row | Structure (SMILES) | MIC (Candida albicans CCH 442) | MIC [1] | MIC (Escherichia coli DC-2) | MIC (Escherichia coli JUHL) | MIC (Escherichia coli SS) | MIC [2] | MIC [3] | MIC [4] | MIC [5] | MIC [6] | MIC [7] | MIC [8] | MIC [9] | MIC [10] | MIC [11] | MIC [12] | MIC [13] | MIC [14] | MIC [15] | MIC [16] | other results
1 | CC[C@H]1OC(=O)[C@H](C)C(=O)[C@H](C)[C@@H](O[C@@H]2O[C@H](C)C[C@H](N(C)C)[C@H]2O)[C@](C)(OCC#Cc2ccc(-c3ncccn3)s2)C[C@@H](C)C(=O)[C@H](C)[C@H]2NC(=O)O[C@@]21C [Example 5] | > 100 µg/mL | 0.02 µg/mL (≈ 0.0251 µM) | 25 µg/mL (≈ 31.4 µM) | 25 µg/mL (≈ 31.4 µM) | 0.1 µg/mL (≈ 0.125 µM) | 2 µg/mL (≈ 2.51 µM) | 0.1 µg/mL (≈ 0.125 µM) | 0.01 µg/mL (≈ 0.0125 µM) | 0.78 µg/mL (≈ 0.979 µM) | 0.01 µg/mL (≈ 0.0125 µM) | > 100 µg/mL | > 100 µg/mL | 0.05 µg/mL (≈ 0.0627 µM) | 0.02 µg/mL (≈ 0.0251 µM) | 0.02 µg/mL (≈ 0.0251 µM) | 0.05 µg/mL (≈ 0.0627 µM) | 0.05 µg/mL (≈ 0.0627 µM) | 0.05 µg/mL (≈ 0.0627 µM) | 0.25 µg/mL (≈ 0.314 µM) | 0.5 µg/mL (≈ 0.627 µM) | MIC [17]: 0.03 µg/mL (≈ 0.0376 µM); MIC [18]: 0.03 µg/mL (≈ 0.0376 µM); MIC [19]: 0.01 µg/mL (≈ 0.0125 µM); MIC [20]: ≤ 0.005 µg/mL; MIC [21]: 25 µg/mL (≈ 31.4 µM); MIC [22]: ≤ 0.005 µg/mL; MIC [23]: 0.1 µg/mL (≈ 0.125 µM)
2 | CC[C@H]1OC(=O)[C@H](C)C(=O)[C@H](C)[C@@H](O[C@@H]2O[C@H](C)C[C@H](N(C)C)[C@H]2O)[C@](C)(OC/C=C/c2cncc(-c3ccco3)c2)C[C@@H](C)C(=O)[C@H](C)[C@H]2NC(=O)O[C@@]21C [Example 50] | > 100 µg/mL | 0.05 µg/mL (≈ 0.0639 µM) | 50 µg/mL (≈ 63.9 µM) | 25 µg/mL (≈ 32 µM) | 0.39 µg/mL (≈ 0.499 µM) | 2 µg/mL (≈ 2.56 µM) | 0.1 µg/mL (≈ 0.128 µM) | 0.01 µg/mL (≈ 0.0128 µM) | 0.39 µg/mL (≈ 0.499 µM) | 0.05 µg/mL (≈ 0.0639 µM) | > 100 µg/mL | > 100 µg/mL | 0.02 µg/mL (≈ 0.0256 µM) | 0.05 µg/mL (≈ 0.0639 µM) | 0.02 µg/mL (≈ 0.0256 µM) | 0.05 µg/mL (≈ 0.0639 µM) | 0.1 µg/mL (≈ 0.128 µM) | 0.05 µg/mL (≈ 0.0639 µM) | 0.12 µg/mL (≈ 0.153 µM) | 128 µg/mL (≈ 164 µM) | MIC [17]: ≤ 0.004 µg/mL; MIC [18]: ≤ 0.004 µg/mL; MIC [19]: 0.01 µg/mL (≈ 0.0128 µM); MIC [20]: 0.01 µg/mL (≈ 0.0128 µM); MIC [21]: 12.5 µg/mL (≈ 16 µM); MIC [22]: 0.02 µg/mL (≈ 0.0256 µM); MIC [23]: 0.1 µg/mL (≈ 0.128 µM)
3 | CC[C@H]1OC(=O)[C@H](C)C(=O)[C@H](C)[C@@H](O[C@@H]2O[C@H](C)C[C@H](N(C)C)[C@H]2O)[C@](C)(OC/C=C/c2ccc(-c3cnc(N)s3)s2)C[C@@H](C)C(=O)[C@H](C)[C@H]2NC(=O)O[C@@]21C [Example 53] | > 100 µg/mL | 0.05 µg/mL (≈ 0.061 µM) | 25 µg/mL (≈ 30.5 µM) | 50 µg/mL (≈ 61 µM) | 0.2 µg/mL (≈ 0.244 µM) | 8 µg/mL (≈ 9.77 µM) | 0.1 µg/mL (≈ 0.122 µM) | 0.01 µg/mL (≈ 0.0122 µM) | 3.1 µg/mL (≈ 3.78 µM) | 0.1 µg/mL (≈ 0.122 µM) | > 100 µg/mL | > 100 µg/mL | 0.1 µg/mL (≈ 0.122 µM) | 0.1 µg/mL (≈ 0.122 µM) | 0.1 µg/mL (≈ 0.122 µM) | 0.1 µg/mL (≈ 0.122 µM) | 0.1 µg/mL (≈ 0.122 µM) | 0.1 µg/mL (≈ 0.122 µM) | 1 µg/mL (≈ 1.22 µM) | 16 µg/mL (≈ 19.5 µM) | MIC [17]: 0.03 µg/mL (≈ 0.0366 µM); MIC [18]: 0.03 µg/mL (≈ 0.0366 µM); MIC [19]: 0.01 µg/mL (≈ 0.0122 µM); MIC [20]: 0.01 µg/mL (≈ 0.0122 µM); MIC [21]: 12.5 µg/mL (≈ 15.3 µM); MIC [22]: ≤ 0.005 µg/mL; MIC [23]: 0.1 µg/mL (≈ 0.122 µM)
